Like-named read-outs stand apart in the source and are kept apart here.
System: patients with Fuchs Corneal Dystrophy (corneal edema)
Format: in vivo, human
Settings: for BCVA (best corrected visual acuity) improvement: netarsudil QD
Excerpt: FIG. 1 is a graphic representation of the study described in Example 6.
A Randomized, Open-Label, Parallel-Group Study of Two Dosing Regimens of Netarsudil in Patients with Fuchs Corneal Dystrophy
Fuchs Corneal Dystrophy (FCD) is a slowly progressive corneal disease, and is the most common indication for corneal transplants worldwide. A typical patient presents with blurred vision, glare, and a hazy cornea from corneal edema. The only definitive treatment option to restore vision is surgery. There is a large unmet need for pharmacologic alternatives to surgery
Purpose of this study: evaluate the therapeutic potential of two dosing regimens of netarsudil, a Rho kinase inhibitor, to reduce corneal edema and improve visual acuity in patients with FCD. […] Complete resolution of edema in 12.5% of patients at Week 4 (BID+QD) (FIG. 2). • d. 25% of patients gained letters from baseline in BCVA at Week 4 (BID+QD) (FIG. 4). • e. […] Improvements in validated patient reported outcome questionnaire shown at all timepoints with netarsudil QD dosing (FIG. 5). • g. […] Most common ocular TEAE was hyperemia accounting for 3/9 and 6/17 total ocular TEAE in the QD and BID groups, respectively. • i. Reticular edema developed in 1 patient in BID group, which resolved with treatment discontinuation.

For `Cc1ccc(C(=O)OCc2ccc([C@@H](CN)C(=O)Nc3ccc4cnccc4c3)cc2)c(C)c1` [netarsudil, Netarsudil], the reticular edema developed (human, in vivo) was 1 patient, the tolerability (human, in vivo) was “well tolerated” and the “BCVA (best corrected visual acuity) improvement” value (week 2) was 5.0 letters. The “BCVA (best corrected visual acuity) improvement” value (week 4) was 3.2 letters, the “patients with complete resolution of edema” value (week 4, BID+QD) was 12.5% and the “patients who gained letters from baseline in BCVA” value (week 4, overall (BID+QD)) was 25%.
